Laboratory results taken from ChEMBL document CHEMBL3045976, “Synthesis of biphenyl derivatives as ACE and -amylase inhibitors” (Med Chem Res, 2013).
Calls of active or inactive are those of the source. The calls are words filed in the database; no cut-off is given here.

Key:
[1] = target: Alpha amylase (Homo sapiens) (UniProt P0DUB6); experiment: Inhibition of alpha-amylase (unknown origin) using starch as substrate at 100 to 500 ug incubated for 10 min prior to substrate addition measured after 15 min by DNSA method relative to control
Sequence of Alpha amylase (Homo sapiens) (P0DUB6 whole entry, looked up): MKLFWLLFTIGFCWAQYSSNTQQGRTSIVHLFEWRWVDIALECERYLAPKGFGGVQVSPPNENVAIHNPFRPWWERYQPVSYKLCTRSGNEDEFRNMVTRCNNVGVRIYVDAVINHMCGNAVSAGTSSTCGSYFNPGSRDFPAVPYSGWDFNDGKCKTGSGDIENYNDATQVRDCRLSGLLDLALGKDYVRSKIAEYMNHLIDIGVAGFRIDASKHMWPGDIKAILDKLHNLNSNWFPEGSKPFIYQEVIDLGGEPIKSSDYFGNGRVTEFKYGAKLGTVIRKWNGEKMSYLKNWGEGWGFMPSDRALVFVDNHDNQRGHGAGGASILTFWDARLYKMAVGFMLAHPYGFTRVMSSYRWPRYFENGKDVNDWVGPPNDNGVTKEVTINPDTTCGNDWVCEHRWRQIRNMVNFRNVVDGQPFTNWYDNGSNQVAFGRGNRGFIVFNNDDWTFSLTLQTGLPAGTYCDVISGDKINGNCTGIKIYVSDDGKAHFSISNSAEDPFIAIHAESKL

[2] = target: Angiotensin-converting enzyme (Homo sapiens) (UniProt P12821); experiment: Inhibition of ACE (unknown origin) using Hippuryl-His-Leu as substrate at 1 to 10 ug incubated for 10 min prior to substrate addition measured after 45 min by spectrophotometric analysis relative to control
Sequence of Angiotensin-converting enzyme (Homo sapiens) (P12821 whole entry): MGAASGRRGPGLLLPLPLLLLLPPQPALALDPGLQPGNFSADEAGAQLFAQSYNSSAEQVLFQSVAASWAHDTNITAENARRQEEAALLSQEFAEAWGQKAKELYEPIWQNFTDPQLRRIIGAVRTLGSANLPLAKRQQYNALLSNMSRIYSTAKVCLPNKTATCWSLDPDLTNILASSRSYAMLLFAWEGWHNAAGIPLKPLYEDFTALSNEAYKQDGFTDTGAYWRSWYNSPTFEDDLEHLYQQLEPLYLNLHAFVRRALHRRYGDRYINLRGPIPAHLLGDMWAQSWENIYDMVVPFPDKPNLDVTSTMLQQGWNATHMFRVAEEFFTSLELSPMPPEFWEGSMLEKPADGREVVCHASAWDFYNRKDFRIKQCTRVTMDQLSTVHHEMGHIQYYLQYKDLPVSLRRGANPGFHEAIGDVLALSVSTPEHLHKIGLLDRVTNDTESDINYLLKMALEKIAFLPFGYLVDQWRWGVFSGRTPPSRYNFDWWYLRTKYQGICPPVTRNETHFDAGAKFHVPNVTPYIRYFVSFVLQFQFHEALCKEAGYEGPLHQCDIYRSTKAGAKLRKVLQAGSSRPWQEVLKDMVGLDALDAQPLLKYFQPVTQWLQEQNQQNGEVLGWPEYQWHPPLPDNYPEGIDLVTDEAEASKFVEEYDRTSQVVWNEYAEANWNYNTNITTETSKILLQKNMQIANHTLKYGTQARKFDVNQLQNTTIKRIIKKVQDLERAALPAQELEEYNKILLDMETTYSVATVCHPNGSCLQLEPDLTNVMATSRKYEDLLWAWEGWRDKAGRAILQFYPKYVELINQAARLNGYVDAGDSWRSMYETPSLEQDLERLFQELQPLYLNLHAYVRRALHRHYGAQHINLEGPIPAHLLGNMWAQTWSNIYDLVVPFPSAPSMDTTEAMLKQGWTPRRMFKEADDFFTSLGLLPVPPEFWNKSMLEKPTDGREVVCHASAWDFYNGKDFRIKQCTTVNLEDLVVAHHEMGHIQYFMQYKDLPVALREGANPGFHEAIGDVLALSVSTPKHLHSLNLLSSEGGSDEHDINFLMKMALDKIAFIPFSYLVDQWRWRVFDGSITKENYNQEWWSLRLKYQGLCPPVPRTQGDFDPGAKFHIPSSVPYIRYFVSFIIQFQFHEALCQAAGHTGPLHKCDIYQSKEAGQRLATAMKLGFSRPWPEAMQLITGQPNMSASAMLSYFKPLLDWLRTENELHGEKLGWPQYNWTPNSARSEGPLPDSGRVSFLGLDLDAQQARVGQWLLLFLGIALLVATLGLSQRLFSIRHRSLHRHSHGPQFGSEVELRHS

[3] = target: Angiotensin-converting enzyme (Homo sapiens) (UniProt P12821); experiment: Inhibition of ACE (unknown origin) using Hippuryl-His-Leu as substrate at 10 ug incubated for 10 min prior to substrate addition measured after 45 min by spectrophotometric analysis relative to control

Row | inhibition [1] | inhibition [2] | inhibition [3] | SMILES
1 | inactive | inactive |  | c1ccc(-c2nnn[nH]2)c(-c2ccc(CN3CCOCC3)cc2)c1
2 | inactive | inactive |  | Cc1nnc(-c2ccccc2-c2ccc(CN3CCC(C(=O)O)CC3)cc2)o1
3 | inactive | inactive |  | Cc1nnc(-c2ccccc2-c2ccc(CN3CCNCC3)cc2)o1
4 | inactive | inactive |  | Cc1nnc(-c2ccccc2-c2ccc(CN3CCOCC3)cc2)o1
5 | inactive | inactive |  | Cc1nnc(-c2ccccc2-c2ccc(CN3CCN(C)CC3)cc2)o1

Further lines, the compound ahead of its results:

Row | SMILES | inhibition [1] | inhibition [2] | inhibition [3]
6 | Cc1nnc(-c2ccccc2-c2ccc(CN3CCN(CCOCCO)CC3)cc2)o1 | inactive | inactive | 
7 | c1ccc(-c2nnn[nH]2)c(-c2ccc(Cn3cncn3)cc2)c1 |  |  | 80%
8 | c1ccc(-c2nnn[nH]2)c(-c2ccc(CN3CCNCC3)cc2)c1 |  |  | 83%
9 | OCCOCCN1CCN(Cc2ccc(-c3ccccc3-c3nnn[nH]3)cc2)CC1 |  | inactive | 
10 | Cc1nnc(-c2ccccc2-c2ccc(Cn3ccnc3)cc2)o1 | inactive | inactive | 
11 | O=C1CSC(=O)N1Cc1ccc(-c2ccccc2-c2nnn[nH]2)cc1 |  | inactive | 
12 | O=C(O)C1CCN(Cc2ccc(-c3ccccc3-c3nnn[nH]3)cc2)CC1 | inactive | inactive | 
13 | CN1CCN(Cc2ccc(-c3ccccc3-c3nnn[nH]3)cc2)CC1 |  |  | 92%
14 | c1ccc(-c2nnn[nH]2)c(-c2ccc(Cn3ccnc3)cc2)c1 |  |  | 80%
15 | Cc1nnc(-c2ccccc2-c2ccc(CN3C(=O)CSC3=O)cc2)o1 | inactive | inactive | 
16 | Cc1nnc(-c2ccccc2-c2ccc(Cn3cncn3)cc2)o1 | inactive | inactive | 
